For experiment [1], the target named is T1, TrkB (Rattus norvegicus, UniProt Q63604).
T1 construct: expressed in transfected cells; host or cells: HEK293T
Briefly: Competition binding with biotinylated R,R-HNK. To be noted: ext fig 1g. How it is done:
Binding assays were performed as previously described with minor modifications. […] Samples from mouse embryo (E18) brains were also lysed, vortexed, sonicated and centrifuged for binding assays. Plates were then washed with PBS. […] For the competition binding assays with biotinylated R,R-HNK, the amino-biotinylation of R,R-HNK was performed using a commercial kit (Thermo Scientific, EZ-Link NHS-PEG4 Biotinylation Kit, 21455) and the reaction monitored by MS. A mixture of biotinylated R,R-HNK (10 µM) and unlabeled compounds (1 pM to 10 µM) in PBS was added to the 96-well plates containing the immunoprecipitated TrkB and incubated for 1 h at room temperature. […] Luminescence was determined via streptavidin conjugated with horseradish peroxidase (HRP; Thermo Fisher Scientific, 21126; 1:5,000, 1 h at room temperature) in reaction with the Pierce ECL substrate (Thermo Fisher Scientific, 32106). Luminescence from blank wells that contained all reagents but the sample lysates was used to determine nonspecific binding. To obtain the binding curves, results from binding assays were fitted to the equation of specific binding with Hill slope from GraphPad Prism 9.2. To calculate koff values, results were fitted to the equation of dissociation of one phase exponential decay from GraphPad Prism 9.2.

Experiment [2] has as its target T2, TrkB:PLCγ1 colocalization (Rattus norvegicus, UniProt Q63604).
T2 construct: endogenous in cells; host or cells: rat hippocampal neuronal cultures (DIV21)
Briefly: dSTORM/TIRF single-molecule colocalization in dendritic spines of hippocampal neurons. It is filed as cell-based. To be noted: 100 nM, 1 h; for Manders colocalization coefficient, group mean (5b) / Manders colocalization coefficient, group mean (5c): averaged per neuron; for Manders colocalization coefficient, group mean (5b): vehicle 0.2835; for Manders colocalization coefficient, group mean (5c): vehicle 0.3968. The protocol:
Then, dishes were fixed with 4% paraformaldehyde (PFA) containing 0.1 µm TetraSpeck beads (Invitrogen, T7279; 1:100). After washing with PBS, dishes were incubated with the blocking buffer (0.1% Triton X-100, 0.05% Tween-20, 10% normal donkey serum, 1% BSA and 0.1% gelatin in PBS) for 1 h at room temperature. Next, dishes were incubated with goat anti-TrkB (R&D Systems, AF1494; 1:100) and rabbit anti-PLCγ1 (Cell Signaling Technologies, 5690S; 1:100) primary antibodies diluted in detergent-free blocking buffer overnight at 4 °C. After washing with PBS, dishes were incubated with Alexa Fluor 647-conjugated donkey anti-goat (Invitrogen, A32849; 1:500) and CF568-conjugated donkey anti-rabbit (Biotium, 20098; 1:500) secondary antibodies in PBS. Dishes were washed and stored in PBS until imaging. For dSTORM/TIRF, we used fresh blinking buffer (0.5 mg ml^−1 glucose oxidase, 40 µg ml^−1 catalase, 10% glucose, 10 mM NaCl, 10 mM cysteamine and 50 mM Tris–HCl, pH 8.0). We used a Nikon Eclipse Ti-E N-STORM/TIRF microscope equipped with an ApoTIRF 100×/1.49 numerical aperture (NA) objective, a Perfect Focus System for Z focus stabilization, an Andor iXon + 897 back-illuminated EMCCD camera (512 × 512), laser lines 405 nm (100 mW), 561 nm (150 mW) and 647 nm (300 mW) and a 405/488/561/647 nm laser quad band filter cube. Image acquisition was performed with the central 256 × 256 pixels and a total of 20,000 frames (exposure time of 15 ms) for both channels using the NIS-Elements Advanced Research software (Nikon). The 405 nm laser was progressively raised to maintain a constant number of localizations per frame. After chromatic aberration correction by correlation with the fluorescent bead fiducials, fitting of the blinking events to build the single-molecule localization coordinate map and drift correction were performed using the Huygens Localizer 21.04 software (Scientific Volume Imaging). Before identifying particles, the first 512 frames of each channel were discarded, a temporal filter length (factor 30) was applied to determine background signal, and data were prefiltered through the standard deviation of a Gaussian filter (σ = 1.0). Next, a threshold calculated from the standard deviation of unfiltered data was multiplied by a factor of 0.75 for the red and 1.5 for the far-red channels and applied to distinguish particles from the background. Pixels from filtered data with values larger than the threshold were considered as candidates for single-molecule localizations. Pixels in filtered data with higher values than surrounding pixels were detected as local maxima. The least-squares fitting was applied for subpixel localization of detected particles, with a fixed full width at half maximum of the Gaussian point spread function of 256 nm. Finally, the resulting single-molecule localization coordinate maps were analyzed with Coloc-Tesseler 1.0 (ref. [79]) by an experimenter blinded to treatment to compute the Manders colocalization coefficients of TrkB (M^TrkB) and PLCγ1 (M^PLCγ1) in dendritic spines on the basis of their overlapping Voronoi diagrams.

The subject of experiment [3] is mice. Briefly: Repeated forced swimming test (rFST). It counts as in vivo, mouse. How it is done: rFST was conducted in WT and Y433F^+/− mice as described in literature[33],[92] with minor modifications. Briefly, female and male adult mice were exposed to five consecutive pretest sessions (5 min of duration, 24 h apart). […] The animals were submitted to a 5 min test session 7 days after the drug administration. The apparatus consisted of 5 l glass beaker cylinders (19 cm diameter, 20 cm water column at 23 ± 2 °C). The water was changed between each trial, for each animal. After each session, the animals were dried and kept in a warmed cage before returning to their home cages. The pretest and test sessions were recorded and analyzed by a trained observer blind to treatment and genotype.

[4] abbreviates: 7 d, saline minus LSD, Bonferroni's multiple comparisons test.

Structures are written as SMILES.

T1 sequence (Q63604 32-821): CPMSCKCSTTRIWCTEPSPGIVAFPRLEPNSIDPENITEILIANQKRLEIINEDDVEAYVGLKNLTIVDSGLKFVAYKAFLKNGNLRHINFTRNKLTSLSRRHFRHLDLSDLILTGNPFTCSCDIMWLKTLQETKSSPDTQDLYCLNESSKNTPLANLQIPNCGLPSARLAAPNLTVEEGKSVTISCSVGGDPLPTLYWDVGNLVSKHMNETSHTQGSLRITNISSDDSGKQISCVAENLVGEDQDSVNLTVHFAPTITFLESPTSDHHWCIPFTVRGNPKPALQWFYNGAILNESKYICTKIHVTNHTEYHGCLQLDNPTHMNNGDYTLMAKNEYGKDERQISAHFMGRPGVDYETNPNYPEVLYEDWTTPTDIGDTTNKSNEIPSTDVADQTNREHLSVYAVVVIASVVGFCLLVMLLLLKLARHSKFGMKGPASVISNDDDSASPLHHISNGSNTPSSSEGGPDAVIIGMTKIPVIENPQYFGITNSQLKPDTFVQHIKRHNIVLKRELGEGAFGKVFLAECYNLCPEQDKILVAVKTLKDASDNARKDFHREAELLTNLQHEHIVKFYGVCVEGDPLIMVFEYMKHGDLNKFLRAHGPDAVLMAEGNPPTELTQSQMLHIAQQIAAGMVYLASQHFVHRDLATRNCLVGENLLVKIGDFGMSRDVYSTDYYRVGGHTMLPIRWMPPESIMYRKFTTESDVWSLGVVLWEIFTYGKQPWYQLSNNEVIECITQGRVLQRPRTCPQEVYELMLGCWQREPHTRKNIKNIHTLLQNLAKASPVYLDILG
T2 sequence (Q63604 32-821): as above

Take `CN(C)CCc1c[nH]c2cccc(O)c12` [PSI, psilocin]: in experiment [1], the “K (one phase decay, best-fit)” value is recorded as 89050556; the “Plateau (one phase decay, best-fit)” value was 38.6; the “Span (one phase decay, best-fit)” value was 50.23; the “Tau (one phase decay, best-fit)” value is 1.12E-08. The “Y0 (one phase decay, best-fit)” value in experiment [1] worked out at 88.84. Further, in experiment [2], the “TrkB:PLCγ1 colocalization in dendritic spines” value is given as “increase TrkB:PLCγ1 colocalization in dendritic spines”; the “Manders colocalization coefficient, group mean (5b)” value is 0.5082; the “Manders colocalization coefficient, group mean (5c)” value was 0.7477.

Take `CCN(CC)C(=O)C1C=C2c3cccc4[nH]cc(c34)CC2N(C)C1` (stereo not shown) [LSD, lysergic acid diethylamide]: in experiment [1], the “K (one phase decay, best-fit)” value amounted to 638387713; the “Plateau (one phase decay, best-fit)” value stood at 36.42; the “Span (one phase decay, best-fit)” value is recorded as 48.28; the “Tau (one phase decay, best-fit)” value was determined as 1.57E-09. The “Y0 (one phase decay, best-fit)” value in experiment [1] was 84.7. For the same compound, in experiment [2], the “TrkB:PLCγ1 colocalization in dendritic spines” value is “increase TrkB:PLCγ1 colocalization in dendritic spines”; the “Manders colocalization coefficient, group mean (5b)” value was 0.6227; the “Manders colocalization coefficient, group mean (5c)” value came out at 0.6899. For the same compound, the “Mean, figure 7g (repeated forced swimming test)” value in experiment [3] (7 d, pretest = 100) amounted to 81.36. For the same compound, in experiment [3] (setting [4]), the “Mean Diff., figure 7f, WT+SAL vs. WT+LSD” value is 34.99 and the “Mean Diff., figure 7f, Y433F+/-+SAL vs. Y433F+/-+LSD” value came to 7.08. The “Mean Diff. vs. Vehicle, figure 7g” value in experiment [3] (7 d, vehicle minus treated, Bonferroni's multiple comparisons test) is 13.93. Further, the “antidepressant-like effect in rFST” value in experiment [3] (WT mice, 7 days after single administration) is reported as “sustained antidepressant-like effect”. In addition, the “Mean, figure 7f (repeated forced swimming test)” value in experiment [3] (WT+LSD, 7 d, pretest = 100) is 60.98. Also, in experiment [3] (Y433F+/-+LSD, 7 d, pretest = 100), the “Mean, figure 7f (repeated forced swimming test)” value came out at 93.99. The “antidepressant-like effect in rFST” value in experiment [3] (Y433F^+/− mice) is reported as “not Y433F^+/− mice”.

In the case of `COc1cccc([C@H](O)C2CCN(CCc3ccc(F)cc3)CC2)c1OC` [M100907], the “effect of pretreatment on antidepressant-like effect of LSD in rFST” value in experiment [3] (M100907 0.5 mg kg^−1) is reported as “did not prevent the antidepressant-like effect of LSD”.

(Values after publication PMC10244169, “Psychedelics promote plasticity by directly binding to BDNF receptor TrkB” (Nature Neuroscience, 2023).)
